Reference: ChEMBL document CHEMBL5352459, “Resorcinol-based hemiindigoid derivatives as human tyrosinase inhibitors and melanogenesis suppressors in human melanoma cells” (Eur J Med Chem, 2023)

B1: Tyrosinase (Homo sapiens), P14679 (protein)
chain: MLLAVLYCLLWSFQTSAGHFPRACVSSKNLMEKECCPPWSGDRSPCGQLSGRGSCQNILLSNAPLGPQFPFTGVDDRESWPSVFYNRTCQCSGNFMGFNCGNCKFGFWGPNCTERRLLVRRNIFDLSAPEKDKFFAYLTLAKHTISSDYVIPIGTYGQMKNGSTPMFNDINIYDLFVWMHYYVSMDALLGGSEIWRDIDFAHEAPAFLPWHRLFLLRWEQEIQKLTGDENFTIPYWDWRDAEKCDICTDEYMGGQHPTNPNLLSPASFFSSWQIVCSRLEEYNSHQSLCNGTPEGPLRRNPGNHDKSRTPRLPSSADVEFCLSLTQYESGSMDKAANFSFRNTLEGFASPLTGIADASQSSMHNALHIYMNGTMSQVQGSANDPIFLLHHAFVDSIFEQWLRRHRPLQEVYPEANAPIGHNRESYMVPFIPLYRNGDFFISSKDLGYDYSYLQDSDPDSFQDYIKSYLEQASRIWSWLLGAAMVGAVLTALLAGLVSLLCRHKRKQLPEEKQPLLMEKEDYHSLYQSHL

Legend:
Tyrosinase [1] = target: T1, Tyrosinase (Homo sapiens, UniProt P14679)
T1 sequence (P14679 whole entry): B1 chain

Tyrosinase [2] = target: T1, Tyrosinase; remark: listed apart in the source
MNT-1 = experiment: cells; conditions: Homo sapiens, MNT-1, 96 h
Description: Inhibition of melanogenesis in human MNT-1 cells incubated for 96 hrs

in vitro = conditions: human, MNT-1 cells
Description: Cytotoxicity against human MNT-1 cells

Mushroom tyrosinase = Mushroom tyrosinase (Agaricus bisporus, UniProt O42713+Q00024+C7FF04+C7FF05)
Tyrosinase [3] = target: T1, Tyrosinase; experiment: Inhibition of human tyrosinase
[4] = compound: O=C1/C(=C/c2ccc(O)cc2O)Cc2c(O)cccc21; type: cell-based; conditions: Homo sapiens; HEK293T; dose 0-8 µM, time 1.0 hrs
[5] = compound: O=C1/C(=C/c2ccc(O)cc2O)Oc2c(O)cccc21; type: cell-based; conditions: Homo sapiens; HEK293T; dose 0-8 µM, time 1.0 hrs
[6] = compound: O=C1/C(=C/c2ccc(O)cc2O)Cc2c(O)cccc21; type: cell-based; conditions: Homo sapiens; HEK293T; dose 0-8 µM, time 1.0 hrs; remark: listed apart in the source
[7] = compound: O=C1/C(=C/c2ccc(O)cc2O)Oc2c(O)cccc21; type: cell-based; conditions: Homo sapiens; HEK293T; dose 0-8 µM, time 1.0 hrs; remark: listed apart in the source
[8] = compound: O=C1/C(=C/c2ccc(O)cc2O)Cc2c(O)cccc21; type: cell-based; conditions: Homo sapiens; HEK293T; dose 0-8 µM, time 1.0 hrs; remark: listed apart in the source
[9] = compound: O=C1/C(=C/c2ccc(O)cc2O)Oc2c(O)cccc21; type: cell-based; conditions: Homo sapiens; HEK293T; dose 0-8 µM, time 1.0 hrs; remark: listed apart in the source

Molecule	IC50 (Tyrosinase [1])	further results
COc1ccc2c(c1OC)O/C(=C\c1ccc(O)cc1O)C2=O	> 100 µM	
COc1ccc2c(c1C)O/C(=C\c1ccc(O)cc1O)C2=O	> 100 µM	
O=C1/C(=C/c2ccc(O)cc2O)Oc2c(O)cccc21	1.57 µM	Ki (Tyrosinase [2]): 0.55 µM; IC50 (MNT-1): 32 µM; CC50 (in vitro): 108 µM
O=C1/C(=C/c2ccc(=O)n(O)c2)Oc2cc(O)ccc21	15 µM	Ki (Mushroom tyrosinase): 1.27 µM
COc1cc(O)ccc1/C=C1\Oc2cc(O)ccc2C1=O	> 100 µM	
O=C1/C(=C/c2ccc(O)cc2O)Oc2cccc(O)c21	25 µM	
Oc1ccc(Cc2cc3cccc(O)c3o2)c(O)c1	> 100 µM	
CCCCc1ccc(O)cc1O [RUCINOL]	8.3 µM	
O=C1/C(=C/c2ccc(O)cc2O)Cc2c(O)cccc21	1.6 µM	Ki (Tyrosinase [2]): 0.25 µM; IC50 (MNT-1): 29 µM; CC50 (in vitro): 91 µM
O=C(/C=C/c1ccc(O)cc1O)c1ccccc1	60 µM	
COc1cc(OC)c2c(c1)O/C(=C\c1ccc(O)cc1O)C2=O	> 100 µM	
COc1ccc2c(c1)O/C(=C\c1ccc(O)cc1O)C2=O	6.9 µM	
O=C1/C(=C/c2ccc(O)cc2O)Oc2cc(F)cc(F)c21	88 µM	
O=C1c2ccccc2C(=O)N1Cc1ccc(O)cc1O	> 100 µM	
Cc1c(C(=O)c2ccc(O)cc2O)oc2c(O)cccc12	> 100 µM	
O=C1/C(=C/c2ccc(O)cc2O)Sc2c(O)cccc21	48 µM	
CN(C)c1cc(O)c2c(c1)O/C(=C\c1ccc(O)cc1O)C2=O	18.4 µM	
COc1cccc2c1O/C(=C\c1ccc(O)cc1O)C2=O	80 µM	
CC1/C(=C\c2ccc(O)cc2O)C(=O)c2ccccc21 (centres undefined)	8.2 µM	
CCCCOc1ccc2c(c1)O/C(=C\c1ccc(O)cc1O)C2=O	> 100 µM	
O=C1/C(=C/c2c(O)cc(O)cc2O)Oc2cc(O)ccc21	15 µM	

Molecule	IC50 (Tyrosinase [1])	further results
CN(C)c1ccc2c(c1)O/C(=C\c1ccc(O)cc1O)C2=O	> 100 µM	
O=c1c2ccccc2[nH]n1Cc1ccc(O)cc1O	> 100 µM	
Nc1c(C(=O)c2ccc(O)cc2O)oc2c(O)cccc12	> 100 µM	
Cc1c(O)ccc2c1O/C(=C\c1ccc(O)cc1O)C2=O	80 µM	
O=C1/C(=C/c2ccc(O)cc2O)Oc2ccccc21	18 µM	
O=C1/C(=C/c2ccc(O)cc2O)Nc2ccccc21	12.7 µM	
O=C1/C(=C/c2ccc(O)cc2O)Cc2ccccc21	5.8 µM	
O=C1/C(=C/c2ccc(O)cc2O)Oc2c1ccc(O)c2O	11.8 µM	
O=C1/C(=C/c2ccc(O)cc2O)Nc2cc(O)ccc21	2.3 µM	
O=C1/C(=C/c2ccc(O)cc2O)Sc2cc(O)ccc21	5.8 µM	
O=c1cc(-c2ccc(O)cc2O)oc2ccccc12	> 100 µM	
O=C1/C(=C/c2ccc(O)cc2O)Oc2cc(O)ccc21	6.4 µM	
O=C1/C(=C/c2ccc(O)cc2O)Oc2cc(O)cc(O)c21	7.7 µM	
O=C1C(=Cc2ccc(O)cc2O)C(=O)c2ccccc21	> 100 µM	
O=C1/C(=C/c2ccc(O)cc2O)Sc2ccccc21	5.9 µM	
O=C1/C(=C/c2ccc(O)cc2O)Oc2cc(Cl)ccc21	> 100 µM	
Oc1cccc(O)c1 [RESORCINOL]		IC50 (Tyrosinase [3]): > 3000 µM
O=C1/C(=C/c2ccc(O)cc2O)Oc2ccc(O)cc21	19 µM	
O=C1/C(=C/c2ccc(O)cc2O)Oc2c1ccc(O)c2I	32 µM	
O=C1/C(=C/c2ccc(O)cc2O)Cc2cc(O)ccc21	3.4 µM	
B1		Km [4]: 161 µM; Km [5]: 143 µM; Vmax [6]: 5.18 µmol/min/mg; Vmax [7]: 4.86 µmol/min/mg; kcat [8]: 5.78 s⁻¹; kcat [9]: 5.41 s⁻¹
